Where “and” joins values, the source holds several entries; their conditions need not be identical. Equal values may be shown once. Inconclusive results and toxic doses are left out. Rule for the calls: active = survival T/C of 150% or more; inactive = T/C below 125% in these data.
System: BDF1 mice, P388 leukemia ip, median survival T/C
Experiment: NCI In Vivo Anticancer Drug Screen. Data for tumor model P388 Leukemia (intraperitoneal) in B6D2F1 (BDF1) mice
Conditions: endpoint: median survival time, higher = longer survival
In short: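 Compound-treated tumour-bearing mice were compared with vehicle-treated controls. Survival was recorded, and the value is the treated-group measurement divided by the control-group measurement (T/C).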

[1] = dose: 50.0 mg/kg/injection, schedule: Q01DX009 (ip), vehicle: saline with Tween-80
[2] = dose: 100.0 mg/kg/injection, schedule: Q01DX009 (ip), vehicle: saline with Tween-80
[3] = dose: 200.0 mg/kg/injection, schedule: Q01DX009 (ip), vehicle: saline with Tween-80
[4] = dose: 3.13 mg/kg/injection, schedule: Q01DX009 (ip), vehicle: saline
[5] = dose: 6.25 mg/kg/injection, schedule: Q01DX009 (ip), vehicle: saline
[6] = dose: 12.5 mg/kg/injection, schedule: Q01DX009 (ip), vehicle: saline
[7] = dose: 100.0 mg/kg/injection, schedule: Q01DX009 (ip), vehicle: saline
[8] = dose: 100.0 mg/kg/injection, schedule: Q04DX003 (ip), vehicle: saline
[9] = dose: 200.0 mg/kg/injection, schedule: Q01DX009 (ip), vehicle: saline
[10] = dose: 200.0 mg/kg/injection, schedule: Q04DX003 (ip), vehicle: saline
[11] = dose: 400.0 mg/kg/injection, schedule: Q04DX003 (ip), vehicle: saline
[12] = dose: 50.0 mg/kg/injection, schedule: Q01DX009 (ip), vehicle: saline
[13] = dose: 100.0 mg/kg/injection, schedule: Q04DX003 (ip), vehicle: saline with Tween-80
[14] = dose: 200.0 mg/kg/injection, schedule: Q04DX003 (ip), vehicle: saline with Tween-80

Measured: T/C

Cn1c(-c2ccccc2)nc2ccccc2c1=O
inactive: [1] 90 % of control | [2] 97 % of control | [3] 101 % of control

CCCCCCCCCCCC[N+](C)(C)CCCCCC[N+](C)(C)CCCCCCCCCCCC
inactive: [4] 113 % of control | [5] 116 % of control | [6] 94 % of control

C[C@]12CCC(=O)C=C1CC[C@H]1[C@@H]3C[C@@H](O)[C@](O)(C(=O)CO)[C@@]3(C)C[C@H](O)[C@@]12F
inactive: [7] 108 % of control | [8] 108 % of control | [9] 87 % of control | [10] 116 % of control | [11] 100 % of control

COC(=O)C1(C(=O)OC)N=C(C)OO1
inactive: [1] 121 % of control | [2] 112 % of control

O=[N+]([O-])C(CO)(CO)CC(F)(F)F
inactive: [4] 100 % of control | dose: 3.13 mg/kg/injection, schedule: Q04DX003 (ip), vehicle: saline 100 % of control | [5] 104 % of control | dose: 6.25 mg/kg/injection, schedule: Q04DX003 (ip), vehicle: saline 100 % of control | [6] 90 % of control

O=C(O)C(Cl)Cc1cnc[nH]1 (stereo not given)
inactive: [12] 97 % of control and 91 % of control | [7] 107 % of control and 87 % of control | [9] 103 % of control and 95 % of control

CCn1c2ccc([N+](=O)[O-])cc2c2c([N+](=O)[O-])cccc21
inactive: dose: 100.0 mg/kg/injection, schedule: Q01DX001 (ip), vehicle: saline with Tween-80 110 % of control | dose: 200.0 mg/kg/injection, schedule: Q01DX001 (ip), vehicle: saline with Tween-80 100 % of control | dose: 400.0 mg/kg/injection, schedule: Q01DX001 (ip), vehicle: saline with Tween-80 94 % of control

CCCCCCOC(=O)/C=C(/C)OCCCCCC
inactive: [1] 100 % of control | dose: 87.5 mg/kg/injection, schedule: Q01DX009 (ip), vehicle: saline with Tween-80 113 % of control | [2] 105 % of control | [8] 108 % of control | dose: 175.0 mg/kg/injection, schedule: Q01DX009 (ip), vehicle: saline with Tween-80 100 % of control | [10] 104 % of control | dose: 265.0 mg/kg/injection, schedule: Q01DX009 (ip), vehicle: saline with Tween-80 113 % of control | dose: 400.0 mg/kg/injection, schedule: Q01DX009 (ip), vehicle: saline with Tween-80 118 % of control | [11] 108 % of control

CN(C)CCC(=O)c1ccccc1
inactive: dose: 25.0 mg/kg/injection, schedule: Q01DX009 (ip), vehicle: saline 100 % of control

O=C(O)C1OC(n2cc(F)c(=O)[nH]c2=O)CC1O (stereo not given)
inactive: dose: 50.0 mg/kg/injection, schedule: Q04DX003 (ip), vehicle: saline 108 % of control | [8] 116 % of control | [10] 106 % of control | dose: 300.0 mg/kg/injection, schedule: Q04DX003 (ip), vehicle: saline 108 % of control

C1CC[N-]CC1.C1CC[N-]CC1.[Cl][Pt+2]([Cl])([Cl])[Cl]
inactive: [2] 95 % of control | [3] 90 % of control

COc1ccc(/C=C/C2(O)N(C)C(=O)N(C)C(=O)N2C)cc1
inactive: [12] 89 % of control | [7] 99 % of control | [9] 118 % of control

CCOC(=O)/C=C/c1ccco1
inactive: [1] 100 % of control | dose: 50.0 mg/kg/injection, schedule: Q04DX003 (ip), vehicle: saline with Tween-80 104 % of control | [2] 88 % of control | [13] 109 % of control | [3] 88 % of control | [14] 109 % of control

CCCCCCCCC(C(=O)c1ccccc1)C(O)(C(F)(F)F)C(F)(F)F (stereo not given)
inactive: [1] 90 % of control | [2] 95 % of control | [13] 95 % of control | [3] 109 % of control | [14] 115 % of control | dose: 400.0 mg/kg/injection, schedule: Q04DX003 (ip), vehicle: saline with Tween-80 115 % of control
